In patent publication US11186566B2, “Modulator of cystic fibrosis transmembrane conductance regulator, pharmaceutical compositions, methods of treatment, and process for making the modulator” (Vertex Pharmaceuticals Incorporated, priority 2016, dated 2021):
pEC50: −log10 of the molar value. Read-outs that look alike come from different tables or passages of the source.

Key:
[1] = biological target: Human Serum Albumin (HSA) (Homo sapiens (Human), UniProt P02768); test: Chromatographic determination of Human Serum Albumin (HSA) binding; assay type: in vitro ADME; settings: ChiralPak HSA column, retention time converted to % HSA
Protocol: 5B. Chromatographic Determination of Human Serum Albumin (HSA) Assay
Chromatographic determination of Human Serum Albumin (HSA) values was performed on a UPLC-MS system using a ChiralPak® HSA column (p/n: 58469AST) from Sigma Aldrich. Mobile phase A consisted of 50 mM ammonium acetate buffer in water adjusted to pH=7.4, and mobile phase B was 2-propanol. The column compartment was kept at constant temperature of 30° C. Determination of retention time on the HSA column was performed by injecting […] of 0.5 mM of compound (in DMSO) using a linear gradient from 0%-30% B in 2.5 minutes, followed by a hold at 30% B for 2 minutes, and the final equilibration step from […] in 1.5 minutes, for a total run time of 6 minutes. Flow rate was kept constant throughout the gradient and set to 1.8 mL/min. Compound retention time on the HSA column was converted to % HSA values according to a previously published protocol (Valko, et. al, 2003) correlating column retention times to standard plasma protein binding (PPB) values obtained from dialysis experiments. HSA data for certain compounds are summarized below in Table 8 below.
Valko, K., Nunhuck, S., Bevan, C., Abraham, M. H., Reynolds, D. P. Fast Gradient HPLC Method to Determine Compounds Binding to Human Serum Albumin. Relationships with Octanol/Water and Immobilized Artificial Membrane Lipophilicity. J. of Pharm. Sci. 2003, 92, 2236-2248.

Rat IV and PO PK studies = assay type: in vivo, male Sprague-Dawley rats; settings: male, Sprague-Dawley, plasma; for bioavailability / AUC: 3 mg/kg, oral; for bioavailability: read-out: Rat po % F; for clearance: intravenous, 3.0 mg/kg, read-out: Rat iv CL
Protocol: 5C. Experimental Protocol for Rat IV and PO PK Studies
[…] […] Analyses of plasma and dose preparations were performed using LC/MS/MS.
Plasma concentration-time profiles of the tested compound in Sprague-Dawley rats at scheduled (nominal) sampling times were analyzed by noncompartmental pharmacokinetic methods using PK function within Watson LIMS software, Version 7.4.2 (Thermo Scientific Inc, Waltham, Mass.). AUC values were calculated using the linear trapezoidal rule.

human PXR = human PXR (Homo sapiens (Human), UniProt O75469); test: PXR assay (PXR mediated CYP3A4 induction, DPX-2 cell line); assay type: cell-based; settings: DPX-2 cells, 48 hours, 0.1 to 60 μM
Protocol: 5D. Experimental Protocol for PXR Assay
The propensity for PXR mediated CYP3A4 induction is assessed using the DPX-2 cell line in vitro. This cell line, which has been licensed from Puracyp Inc. was derived from HepG2 cells and has been stably transfected with genes encoding human PXR as well as a modified luciferase reporter linked to the CYP3A4 promoter region and related distal and proximal enhancers.
The assay is run in 384 well format and each test article is administered in 11 doses ranging from 0.1 to 60 μM. On day 1, DPX-2 cells which have previously been expanded in-house and cryopreserved are thawed and seeded in tissue culture plates. The following day, media is changed and cells are cultured in media containing test article, vehicle control or the positive control compound, the clinically validated CYP3A4 inducer rifampicin. Cells are cultured in the presence of test article for 48 hours and then cell viability is assessed using fluorescence based assay (Cell Titer-Fluor, Promega) with an EnVision Plate Reader (PerkinElmer). Subsequently, CYP3A4 transactivation, which is proportional to luciferase activity, is measured by reading luminescense using the Promega One-Glo reagent system using the same plate reader.
Data processing within the Genedata software package allows reporting of max fold induction compared to vehicle control, an EC50 value for CYP3A4 inducers and an 11 point-dose response curve.

F508del-CFTR [2] = biological target: T1, F508del-CFTR (Homo sapiens (Human), UniProt P13569, DEL508-508); test: Membrane potential optical (fluorescent voltage sensing dye, FLIPR III) HTS assay for F508del-CFTR modulators; assay type: cell-based
Outline: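 NIH3T3 mouse fibroblasts stably expressing F508del-CFTR were seeded on matrigel-coated plates for 18–24 h at 37 °C. For correction assays they were cultured with or without compound for that period. Membrane potential was read on FLIPR III with voltage-sensing dyes, using a pH 7.4 NaCl/HEPES bath and a chloride-free gluconate substitute solution.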

F508del-CFTR [3] = biological target: T1, F508del-CFTR; test: Ussing chamber chloride transport experiments in HBE cells; assay type: cell-based; settings: HBE cells
Protocol: Ussing chamber experiments were performed on polarized airway epithelial cells expressing F508del to further characterize the F508del modulators identified in the optical assays. Non-CF and CF airway epithelia were isolated from bronchial tissue, cultured as previously described (Galietta, L. J. V., Lantero, S., Gazzolo, A., Sacco, O., Romano, L., Rossi, G. A., & Zegarra-Moran, O. (1998) In Vitro Cell. Dev. Biol. 34, 478-481), and plated onto Costar® Snapwell™ filters that were precoated with NIH3T3-conditioned media. After four days the apical media was removed and the cells were grown at an air liquid interface for >14 days prior to use. […] CF-HBE were isolated from patients homozygous for […] or compound heterozygous for F508del with an different disease causing mutation on the other allele.
HBE grown on Costar® Snapwell™ cell culture inserts were mounted in an Ussing chamber (Physiologic Instruments, Inc., San Diego, Calif.), and the transepithelial resistance and short-circuit current in the presence of a basolateral to apical Cl^− gradient (ISC) were measured using a voltage-clamp system (Department of Bioengineering, University of Iowa, Iowa). Briefly, HBE were examined under voltage-clamp recording conditions (Vhold=0 mV) at 37° C. The basolateral solution contained (in mM) 145 NaCl, 0.83 K2HPO4, 3.3 KH2PO4, 1.2 MgCl2, 1.2 CaCl2, 10 Glucose, 10 HEPES (pH adjusted to 7.35 with NaOH) and the apical solution contained (in mM) 145 NaGluconate, 1.2 MgCl2, 1.2 CaCl2, 10 glucose, 10 HEPES (pH adjusted to 7.35 with NaOH).
Typical protocol utilized a basolateral to apical membrane Cl^− concentration gradient. To set up this gradient, normal ringers was used on the basolateral membrane, whereas apical NaCl was replaced by equimolar sodium gluconate (titrated to pH 7.4 with NaOH) to give a large Cl^− concentration gradient across the epithelium. Modulators were added either to the basolateral side […] to assay or to the apical side during the assay. Forskolin (10 μM) was added to the apical side during the assay to stimulate CFTR-mediated Cl^− transport. […]

[4] = F508del NIH 3T3 cells, assay 5A-A1, read-out: CFTRdF508 EC50
[5] = Table 9, read-out: CFTR dF508 EC50

Chain of human PXR (O75469 whole entry): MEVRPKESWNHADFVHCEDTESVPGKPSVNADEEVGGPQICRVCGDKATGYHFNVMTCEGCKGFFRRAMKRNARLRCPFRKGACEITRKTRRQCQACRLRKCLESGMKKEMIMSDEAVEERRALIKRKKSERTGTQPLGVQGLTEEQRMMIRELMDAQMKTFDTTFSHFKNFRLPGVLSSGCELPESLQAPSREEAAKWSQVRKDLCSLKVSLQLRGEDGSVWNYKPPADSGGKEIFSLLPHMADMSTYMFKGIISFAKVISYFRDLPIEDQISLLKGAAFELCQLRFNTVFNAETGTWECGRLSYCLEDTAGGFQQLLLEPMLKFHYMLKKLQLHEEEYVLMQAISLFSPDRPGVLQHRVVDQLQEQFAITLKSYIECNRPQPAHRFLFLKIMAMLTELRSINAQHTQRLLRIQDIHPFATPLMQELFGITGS
T1 sequence (P13569 other isoform, or with tags, fused parts or gaps del F508-F508): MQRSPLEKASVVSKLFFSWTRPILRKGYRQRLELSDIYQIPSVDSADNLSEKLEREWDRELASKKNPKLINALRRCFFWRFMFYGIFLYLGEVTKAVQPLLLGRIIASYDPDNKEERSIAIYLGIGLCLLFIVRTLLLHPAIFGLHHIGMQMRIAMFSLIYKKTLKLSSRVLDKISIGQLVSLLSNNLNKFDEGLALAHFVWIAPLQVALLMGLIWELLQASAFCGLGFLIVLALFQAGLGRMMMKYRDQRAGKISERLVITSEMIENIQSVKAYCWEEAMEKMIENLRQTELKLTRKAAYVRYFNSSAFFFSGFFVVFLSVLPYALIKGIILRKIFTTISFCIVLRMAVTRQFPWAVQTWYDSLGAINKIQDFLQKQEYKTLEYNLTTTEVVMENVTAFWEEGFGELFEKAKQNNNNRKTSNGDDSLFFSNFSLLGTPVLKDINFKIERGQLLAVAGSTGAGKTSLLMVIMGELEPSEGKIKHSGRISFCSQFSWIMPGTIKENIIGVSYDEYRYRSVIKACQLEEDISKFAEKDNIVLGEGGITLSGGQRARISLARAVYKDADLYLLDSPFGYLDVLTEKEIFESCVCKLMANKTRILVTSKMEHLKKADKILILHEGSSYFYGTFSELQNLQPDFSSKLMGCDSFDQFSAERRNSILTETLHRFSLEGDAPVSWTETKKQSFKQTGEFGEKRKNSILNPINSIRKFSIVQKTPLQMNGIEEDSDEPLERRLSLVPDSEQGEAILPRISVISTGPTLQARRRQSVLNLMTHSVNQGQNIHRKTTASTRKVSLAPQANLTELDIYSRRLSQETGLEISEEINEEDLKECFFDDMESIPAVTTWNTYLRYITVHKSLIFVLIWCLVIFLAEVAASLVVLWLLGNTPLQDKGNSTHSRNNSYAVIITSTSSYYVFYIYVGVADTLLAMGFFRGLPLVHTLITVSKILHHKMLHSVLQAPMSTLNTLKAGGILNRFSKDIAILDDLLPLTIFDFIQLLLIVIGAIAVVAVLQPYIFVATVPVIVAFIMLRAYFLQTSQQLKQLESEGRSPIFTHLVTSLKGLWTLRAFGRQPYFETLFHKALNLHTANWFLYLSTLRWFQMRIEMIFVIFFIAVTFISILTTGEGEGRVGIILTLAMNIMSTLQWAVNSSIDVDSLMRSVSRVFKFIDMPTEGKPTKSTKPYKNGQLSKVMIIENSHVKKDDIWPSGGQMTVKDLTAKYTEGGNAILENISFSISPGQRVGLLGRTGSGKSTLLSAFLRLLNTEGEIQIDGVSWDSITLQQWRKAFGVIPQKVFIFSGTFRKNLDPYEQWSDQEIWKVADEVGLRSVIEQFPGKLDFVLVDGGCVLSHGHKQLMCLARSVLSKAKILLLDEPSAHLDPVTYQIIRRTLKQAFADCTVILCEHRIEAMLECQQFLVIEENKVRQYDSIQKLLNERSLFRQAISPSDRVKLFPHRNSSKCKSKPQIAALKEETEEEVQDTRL
Chain of Human Serum Albumin (HSA) (P02768 25-609): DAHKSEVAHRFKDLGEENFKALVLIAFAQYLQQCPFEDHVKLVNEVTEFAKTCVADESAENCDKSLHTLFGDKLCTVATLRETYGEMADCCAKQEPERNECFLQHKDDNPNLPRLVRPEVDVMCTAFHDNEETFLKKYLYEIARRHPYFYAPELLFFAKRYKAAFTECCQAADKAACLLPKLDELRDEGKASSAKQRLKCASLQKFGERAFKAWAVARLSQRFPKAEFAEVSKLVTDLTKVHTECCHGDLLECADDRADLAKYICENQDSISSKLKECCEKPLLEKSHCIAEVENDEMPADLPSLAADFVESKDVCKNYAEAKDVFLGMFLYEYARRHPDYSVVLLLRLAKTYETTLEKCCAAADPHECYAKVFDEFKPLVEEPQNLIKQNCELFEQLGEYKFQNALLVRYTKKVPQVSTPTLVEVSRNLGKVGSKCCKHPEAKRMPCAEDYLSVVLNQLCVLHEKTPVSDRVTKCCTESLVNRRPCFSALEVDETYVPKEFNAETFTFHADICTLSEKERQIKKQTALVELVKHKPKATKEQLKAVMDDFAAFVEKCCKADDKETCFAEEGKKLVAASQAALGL

Row | HSA binding [1] [%] | bioavailability (Rat IV and PO PK studies) [%] | clearance (Rat IV and PO PK studies) [mL/min/kg] | AUC (Rat IV and PO PK studies) [ng·h/mL] | PXR Max Induction (% of rifampicin) (human PXR) | pEC50 (F508del-CFTR [2]; [4]) | pEC50 (F508del-CFTR [2]; [5]) | potentiation of F508del-CFTR delivered to the cell surface by Compound I alone or in combination with Compound II (F508del-CFTR [3]) | SMILES
1 | 97.9 | – | – | – | – | – | – | – | C[C@@H]1CN(c2nc(-n3ccc(OCC4(C(F)(F)F)CC4)n3)ccc2C(=O)NS(=N)(=O)c2ccccc2)C(C)(C)C1 (single isomer, unassigned) [drawing 339]
2 | – | 100 | 5.2 | 10500 | 17 % of rifampicin | > 7.00 | 7.30 | – | C[C@@H]1CN(c2nc(-n3ccc(OCC4(C(F)(F)F)CC4)n3)ccc2C(=O)NS(=O)(=O)c2cccc(F)c2)C(C)(C)C1 [Comp. 51, N-(3-Fluorophenyl)sulfonyl-6-[3-[[1-(trifluoromethyl)cyclopropyl]methoxy]pyrazol-1-yl]-2-[(4S)-2,2,4-trimethylpyrrolidin-1-yl]pyridine-3-carboxamide]
3 | 99.1 | – | – | – | – | – | – | – | C[C@@H]1CN(c2nc(-n3ccc(OCC4(C(F)(F)F)CC4)n3)ccc2C(=O)NS(=O)(=O)c2ccccc2)C(C)(C)C1 [drawing 337]
4 | – | 58 | 2 | 14700 | 19 % of rifampicin | > 7.00 | 7.40 | – | C[C@@H]1CN(c2nc(-n3ccc(OCC4(C(F)(F)F)CC4)n3)ccc2C(=O)NS(=O)(=O)c2ccccc2)C(C)(C)C1 [Compound 14, N-(Benzenesulfonyl)-6-[3-[[1-(trifluoromethyl)cyclopropyl]methoxy]pyrazol-1-yl]-2-[(4S)-2,2,4-trimethylpyrrolidin-1-yl]pyridine-3-carboxamide]
5 | – | 98 | 2.3 | 13700 | 39 % of rifampicin | > 7.00 | 7.40 | – | COc1ccccc1S(=O)(=O)NC(=O)c1ccc(-n2ccc(OCC3(C(F)(F)F)CC3)n2)nc1N1C[C@@H](C)CC1(C)C [Comp. 53, N-(2-methoxyphenyl)sulfonyl-6-[3-[[l-(trifluoromethyl)cyclopropyl]methoxy]pyrazol-1-yl]-2-[(4S)-2,2,4-trimethylpyrrolidin-1-yl]pyridine-3-carboxamide]
6 | – | 31 | 6.7 | 3600 | 4 % of rifampicin | 6.00 to 7.00 | 6.92 | – | C[C@@H]1CN(c2nc(-n3ccc(OCC4(C(F)(F)F)CC4)n3)ccc2C(=O)NS(=O)(=O)c2ccc(O)cc2)C(C)(C)C1 [Compound 22, N-(4-Hydroxyphenyl)sulfonyl-6-[3-[[1-(trifluoromethyl)cyclopropyl]methoxy]pyrazol-1-yl]-2-[(4S)-2,2,4-trimethylpyrrolidin-1-yl]pyridine-3-carboxamide]
7 | – | 26 | 6.1 | 2300 | 0 % of rifampicin | > 7.00 | 7.05 | – | C[C@@H]1CN(c2nc(-n3ccc(OCC4C(C)(C)C4(C)C)n3)ccc2C(=O)NS(=O)(=O)c2ccccc2)C(C)(C)C1 [Comp. 30, N-(Benzenesulfonyl)-6-[3-[(2,2,3,3-tetramethylcyclopropyl)methoxy]pyrazol-1-yl]-2-[(4S)-2,2,4-trimethylpyrrolidin-1-yl]pyridine-3-carboxamide]
8 | – | 69 | 2.7 | 12500 | 22 % of rifampicin | > 7.00 | 7.52 | – | Cc1ccccc1S(=O)(=O)NC(=O)c1ccc(-n2ccc(OCC3(C(F)(F)F)CC3)n2)nc1N1C[C@@H](C)CC1(C)C [Compound 23, N-(o-Tolylsulfonyl)-6-[3-[[1-(trifluoromethyl)cyclopropyl]methoxy]pyrazol-1-yl]-2-[(4S)-2,2,4-trimethylpyrrolidin-1-yl]pyridine-3-carboxamide]
9 | – | 12 | 24.8 | 250 | 2 % of rifampicin | > 7.00 | 7.70 | – | C[C@@H]1CN(c2nc(-n3ccc(OCC4C(C)(C)C4(C)C)n3)ccc2C(=O)NS(=O)(=O)c2cccc(F)c2)C(C)(C)C1 [Compound 16, N-(3-Fluorophenyl)sulfonyl-6-[3-[(2,2,3,3-tetramethylcyclopropyl)methoxy]pyrazol-1-yl]-2-[(4S)-2,2,4-trimethylpyrrolidin-1-yl]pyridine-3-carboxamide]
10 | 98.1 | – | – | – | – | – | – | – | C[C@@H]1CN(c2nc(-n3ccc(OCC4(C(F)(F)F)CC4)n3)ccc2C(=O)NS(=N)(=O)c2ccccc2)C(C)(C)C1 (mixture of isomers)
11 | – | 79 | 3.4 | 9000 | 4 % of rifampicin | > 7.00 | 7.30 | – | C[C@@H]1CN(c2nc(-n3ccc(OCC4C5(CC5)C45CC5)n3)ccc2C(=O)NS(=O)(=O)c2ccccc2)C(C)(C)C1 [Compound 64, N-(Benzenesulfonyl)-6-[3-(dispiro[2.0.2.1]heptan-7-ylmethoxy)pyrazol-1-yl]-2-[(4S)-2,2,4-trimethylpyrrolidin-1-yl]pyridine-3-carboxamide]
12 | 98.4 | – | – | – | – | – | – | – | C[C@@H]1CN(c2nc(-n3ccc(OCC4(C(F)(F)F)CC4)n3)ccc2C(=O)NS(=N)(=O)c2ccccc2)C(C)(C)C1 (single isomer, unassigned) [drawing 340]
13 | – | – | – | – | – | – | – | potentiated | CC(C)(C)c1cc(C(C)(C)C)c(NC(=O)c2c[nH]c3ccccc3c2=O)cc1O [Compound III, N-(5-hydroxy-2,4-di-tert-butyl-phenyl)-4-oxo-1H-quinoline-3-carboxamide, reference compound]
